According to publication PMC10497752, “Heparins are potent inhibitors of ectonucleotide pyrophosphatase/phospho-diesterase-1 (NPP1) – a promising target for the immunotherapy of cancer” (Frontiers in Immunology, 2023):

How the values were obtained:
[1] = target: T1, human NPP3 (Homo sapiens, UniProt O14638); test: NPP3 colorimetric assay, p-Nph-5'-TMP as substrate; assay type: biochemical; conditions: 20 µg/mL (12 µM)
T1 construct: Soluble and purified human NPP3, prepared as previously described; made in house
T1 sequence (O14638 31-875 limits assumed): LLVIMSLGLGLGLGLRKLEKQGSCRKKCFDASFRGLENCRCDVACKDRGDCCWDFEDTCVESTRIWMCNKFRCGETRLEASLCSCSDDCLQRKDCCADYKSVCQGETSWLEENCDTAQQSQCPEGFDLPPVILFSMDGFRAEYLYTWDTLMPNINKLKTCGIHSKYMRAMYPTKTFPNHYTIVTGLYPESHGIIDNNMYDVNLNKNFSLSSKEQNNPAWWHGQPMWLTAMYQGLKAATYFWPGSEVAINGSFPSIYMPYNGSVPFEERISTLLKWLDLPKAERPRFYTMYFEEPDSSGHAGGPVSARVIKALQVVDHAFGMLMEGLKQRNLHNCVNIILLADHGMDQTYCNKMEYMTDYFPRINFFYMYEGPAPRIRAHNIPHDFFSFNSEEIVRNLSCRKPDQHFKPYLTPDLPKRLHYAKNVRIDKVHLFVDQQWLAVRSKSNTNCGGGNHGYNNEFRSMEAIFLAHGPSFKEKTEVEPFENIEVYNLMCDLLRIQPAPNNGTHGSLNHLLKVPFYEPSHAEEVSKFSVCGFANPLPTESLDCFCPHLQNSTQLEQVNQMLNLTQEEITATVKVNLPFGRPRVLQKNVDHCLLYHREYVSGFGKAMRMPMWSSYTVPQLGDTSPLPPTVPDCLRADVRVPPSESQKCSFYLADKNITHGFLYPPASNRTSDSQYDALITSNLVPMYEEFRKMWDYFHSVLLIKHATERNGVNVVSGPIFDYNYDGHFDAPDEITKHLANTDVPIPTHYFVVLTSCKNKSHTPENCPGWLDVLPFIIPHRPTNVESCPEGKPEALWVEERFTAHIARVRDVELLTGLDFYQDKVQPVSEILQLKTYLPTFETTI
Protocol: Compounds 1, 2, 5, 6, and 7 were screened at different concentrations using 400 μM of p-nitrophenyl thymidine monophosphate (p-Nph-5´-TMP) as substrate to study potential inhibition of NPP3 and NPP5 using a colorimetric assay as previously described ([21]). Soluble and purified human NPP3, prepared as previously described ([22]), and human NPP5 ([23]) were diluted in the assay buffer (50 mM TRIS HCl, 2 mM CaCl2, and 0.2 mM ZnCl2, pH 9.00), and 0.09 µg of NPP3, or 0.4 µg of NPP5 were employed. The mixtures were incubated for 30 min at 37°C in case of NPP3, and for 100 min at 37°C in case of NPP5, and the reactions were subsequently terminated by adding 20 μL of 1.0 N aq. NaOH solution. The assay is based on the enzymatic ester hydrolysis of p-Nph-5’-TMP which results in the formation of the yellow p-nitrophenolate anion. The absorption was measured at 400 nm using a BMG PheraStar FS plate reader (BMG Labtech GmbH, Ortenberg, Germany). Each analysis was repeated three times with triplicate measurements.

[2] = tested on: U87 human glioblastoma cells; test: U87 cell-based assay, extracellular adenosine formation from ATP (CE-UV); conditions: U-87 MG, 300 µM ATP, 3 h, DP and EHNA, 10 µg/mL (~ 6 µM)
Protocol: U87 human glioblastoma cells were grown in cell culture flasks until reaching a fully covered confluent cell layer. Cells were cultivated at 37°C and 5% CO2 in DMEM with additions of 10% FCS, 1% penicillin/streptomycin and 1% L-glutamine. The cells were rinsed with phosphate-buffered saline (PBS) and detached with EDTA. Thereafter, they were counted by a Cell Counter CASY® 1 Model TT (Schärfe System GmbH, Reutlingen, Germany) to retrieve the number of viable cells, and washed three times with PBS before they were resuspended in Krebs-HEPES buffer at a concentration of 10^6 cells/mL ([37]). Then, 1 mL of cell suspension was transferred into a 24-well plate. The cells were pretreated with the nucleoside transport inhibitor dipyridamole (20 µM) for 30 min ([38]). Adenosine deaminase (ADA) activity was inhibited by the addition of 1 µM of the inhibitor EHNA (erythro-9-amino-β-hexyl-α-methyl-9H-purine-9-ethanol hydrochloride) ([39]). Heparins, their non-anticoagulative analogs, and the known ectonucleotidase inhibitor PSB-POM-141 ([20]) were added. The samples were incubated with 300 µM of ATP for 3 h at 37°C and 5% CO2. […]
The percentage of inhibition of adenosine format ion in U87 cell supernatants by heparin derivatives was calculated from the conversion rate as follows: […]

- NPP3 inhibition, selectivity study [1]: no effect
SMILES: CO[C@H]1O[C@H](COS(=O)(=O)O)[C@@H](O[C@@H]2O[C@@H](C(=O)O)[C@@H](O[C@H]3O[C@H](COS(=O)(=O)O)[C@@H](O[C@@H]4O[C@H](C(=O)O)[C@@H](O[C@H]5O[C@H](COS(=O)(=O)O)[C@@H](O)[C@H](O)[C@H]5NS(=O)(=O)O)[C@H](O)[C@H]4O)[C@H](OS(=O)(=O)O)[C@H]3NS(=O)(=O)O)[C@H](O)[C@H]2OS(=O)(=O)O)[C@H](O)[C@H]1NS(=O)(=O)O [Compound 6, Fondaparinux]
- inhibition at 10 µg/mL [2]: 60%
